Experimental data taken from US20240158446A1, “CYCLIC COMPOUND HAVING SELECTIVE INHIBITORY ACTION ON KRAS OVER HRAS AND NRAS” (CHUGAI SEIYAKU KABUSHIKI KAISHA, priority 2021, published 2024).

How the values were obtained:
[1] = target: GDP-bound HRAS wild-type protein (Homo sapiens, UniProt P01112); test: Binding to HRAS by surface plasmon resonance (SPR), Single Cycle Kinetics; details: SPR, GDP-bound HRAS wild-type protein vs GDP-bound KRAS wild-type protein
[2] = target: GDP-bound KRAS wild-type protein (Homo sapiens, UniProt P01116); test: Binding to KRAS by surface plasmon resonance (SPR), Single Cycle Kinetics; details: SPR, Single Cycle Kinetics, GDP-bound KRAS wild-type protein; read-out: KRAS KD
[3] = target: GDP-bound NRAS wild-type protein (Homo sapiens, UniProt P01111); test: Binding to NRAS by surface plasmon resonance (SPR), Single Cycle Kinetics; details: SPR, GDP-bound NRAS wild-type protein vs GDP-bound KRAS wild-type protein
GDP-bound NRAS wild-type protein, sequence (P01111 whole entry): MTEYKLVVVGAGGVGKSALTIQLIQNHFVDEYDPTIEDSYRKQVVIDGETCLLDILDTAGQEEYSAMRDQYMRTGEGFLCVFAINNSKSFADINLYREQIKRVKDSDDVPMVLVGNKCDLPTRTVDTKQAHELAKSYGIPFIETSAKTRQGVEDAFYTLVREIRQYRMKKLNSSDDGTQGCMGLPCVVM

GDP-bound KRAS wild-type protein, sequence (P01116 whole entry): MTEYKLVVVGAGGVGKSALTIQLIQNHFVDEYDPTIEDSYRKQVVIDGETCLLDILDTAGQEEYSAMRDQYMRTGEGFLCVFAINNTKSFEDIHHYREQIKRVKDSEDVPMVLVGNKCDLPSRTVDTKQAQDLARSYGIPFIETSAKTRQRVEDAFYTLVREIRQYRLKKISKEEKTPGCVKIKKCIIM
GDP-bound HRAS wild-type protein, sequence (P01112 whole entry): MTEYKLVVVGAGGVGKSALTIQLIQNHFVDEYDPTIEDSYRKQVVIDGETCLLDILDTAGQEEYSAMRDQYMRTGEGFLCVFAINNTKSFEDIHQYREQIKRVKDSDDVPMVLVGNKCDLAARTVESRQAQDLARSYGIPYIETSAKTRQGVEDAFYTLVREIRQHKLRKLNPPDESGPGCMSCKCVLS

Compound | Kd [2] | HRAS/KRAS (ratio of KD value for HRAS to KD value for KRAS) [1] | NRAS/KRAS (ratio of KD value for NRAS to KD value for KRAS) [3]
CCC[C@H]1C(=O)N[C@@H]([C@@H](C)CC)C(=O)N(C)CC(=O)N(C)[C@H]2C/C=C\CCN(C2=O)[C@@H](Cc2ccc(C(F)(F)F)cc2)C(=O)N(C)CC(=O)N[C@@H](CCc2ccc(C(F)(F)F)c(Cl)c2)C(=O)N2C[C@H](OCC)C[C@H]2C(=O)NC2(CC(C)(C)C2)C(=O)N(C)[C@@H](CC(F)(F)F)C(=O)N(C)[C@H](C(=O)N(C)C)CC(=O)N1C [PP2975] | 0.96 nM | A (a compound having 10 or more and less than 20 is denoted as A) | A (a compound having 10 or more and less than 20 is denoted as A)
CCC[C@H]1C(=O)N[C@@H](C2CCCC2)C(=O)N(C)CC(=O)N(C)[C@H]2C/C=C\CCN(C2=O)[C@@H](Cc2ccc(C(F)(F)F)cc2)C(=O)N(C)CC(=O)N[C@@H](CCc2ccc(C(F)(F)F)c(Cl)c2)C(=O)N2CC3(CC3)C[C@H]2C(=O)NC2(CC(C)(C)C2)C(=O)N(C)[C@@H](CC(C)(C)C)C(=O)N(C)[C@H](C(=O)N(C)C)CC(=O)N1C [PP2981] | 0.31 nM | A (a compound having 10 or more and less than 20 is denoted as A) | AA (a compound having 20 or more is denoted as AA)
CCC[C@H]1C(=O)N[C@@H]([C@@H](C)CC)C(=O)N(C)CC(=O)N(C)[C@H]2C/C=C\CCN(C2=O)[C@@H](Cc2ccc(C(F)(F)F)cc2)C(=O)N(C)CC(=O)N[C@@H](CCc2ccc(C(F)(F)F)c(Cl)c2)C(=O)N2CC3(CC3)C[C@H]2C(=O)NC2(CC(C)(C)C2)C(=O)N(C)[C@@H]([C@@H](C)CC)C(=O)N(C)[C@H](C(=O)N(C)C)CC(=O)N1C [PP2983] | 0.5 nM | A (a compound having 10 or more and less than 20 is denoted as A) | AA (a compound having 20 or more is denoted as AA)
CCC[C@H]1C(=O)N[C@@H](C2CCCC2)C(=O)N(C)CC(=O)N(C)[C@H]2C/C=C\CCN(C2=O)[C@@H](Cc2ccc(C(F)(F)F)cc2)C(=O)N(C)CC(=O)N[C@@H](CCc2ccc(C(F)(F)F)c(Cl)c2)C(=O)N2CC3(CC3)C[C@H]2C(=O)NC2(CC(C)(C)C2)C(=O)N(C)[C@@H](C2CCCC2)C(=O)N(C)[C@H](C(=O)N(C)C)CC(=O)N1C [PP2986] | 0.34 nM | A (a compound having 10 or more and less than 20 is denoted as A) | AA (a compound having 20 or more is denoted as AA)
CCC[C@H]1C(=O)N[C@@H]([C@@H](C)CC)C(=O)N(C)CC(=O)N(C)[C@H]2C/C=C\CCN(C2=O)[C@@H](Cc2ccc(C(F)(F)F)cc2)C(=O)N(C)CC(=O)N[C@@H](CCc2ccc(C(F)(F)F)c(Cl)c2)C(=O)N2CC3(CC3)C[C@H]2C(=O)NC2(CC(C)(C)C2)C(=O)N(C)[C@@H](CC(C)C)C(=O)N(C)[C@H](C(=O)N(C)C)CC(=O)N1C [PP2987] | 0.66 nM | A (a compound having 10 or more and less than 20 is denoted as A) | AA (a compound having 20 or more is denoted as AA)
CCC[C@H]1C(=O)N[C@@H]([C@@H](C)CC)C(=O)N(C)CC(=O)N(C)[C@H]2C/C=C\CCN(C2=O)[C@@H](Cc2ccc(C)cc2)C(=O)N(C)CC(=O)N[C@@H](CCc2cc(F)c(C(F)(F)F)c(F)c2)C(=O)N2C[C@H](OCC)C[C@H]2C(=O)NC2(CC(C)(C)C2)C(=O)N(C)[C@@H](CC(F)(F)F)C(=O)N(C)[C@H](C(=O)N(C)C)CC(=O)N1C [PP2993] | 0.43 nM | A (a compound having 10 or more and less than 20 is denoted as A) | A (a compound having 10 or more and less than 20 is denoted as A)
CCC[C@H]1C(=O)N[C@@H](C2CCCCC2)C(=O)N(C)CC(=O)N(C)[C@H]2C/C=C\CCN(C2=O)[C@@H](Cc2ccc(C(F)(F)F)cc2)C(=O)N(C)CC(=O)N[C@@H](CCc2ccc(C(F)(F)F)c(Cl)c2)C(=O)N2C[C@H](OCC)C[C@H]2C(=O)NC2(CC(C)(C)C2)C(=O)N(C)[C@@H](C2CCCC2)C(=O)N(C)[C@H](C(=O)N(C)C)CC(=O)N1C [PP2996] | 0.36 nM | A (a compound having 10 or more and less than 20 is denoted as A) | AA (a compound having 20 or more is denoted as AA)

Now those with a lower Kd [2], led by results:

Kd [2] | Compound | HRAS/KRAS (ratio of KD value for HRAS to KD value for KRAS) [1] | NRAS/KRAS (ratio of KD value for NRAS to KD value for KRAS) [3]
0.3 nM | CCC[C@H]1C(=O)N[C@@H]([C@@H](C)CC)C(=O)N(C)CC(=O)N(C)[C@H]2C/C=C\CCN(C2=O)[C@@H](Cc2ccc(C(F)(F)F)cc2)C(=O)N(C)CC(=O)N[C@@H](CCc2ccc(C(F)(F)F)c(Cl)c2)C(=O)N2C[C@H](OCC)C[C@H]2C(=O)NC2(CC(C)(C)C2)C(=O)N(C)[C@@H](CC(C)C)C(=O)N(C)[C@H](C(=O)N(C)C)CC(=O)N1C [PP2977] | A (a compound having 10 or more and less than 20 is denoted as A) | A (a compound having 10 or more and less than 20 is denoted as A)
0.28 nM | CCC[C@H]1C(=O)N[C@@H]([C@@H](C)CC)C(=O)N(C)CC(=O)N(C)[C@H]2C/C=C\CCN(C2=O)[C@@H](Cc2ccc(C(F)(F)F)cc2)C(=O)N(C)CC(=O)N[C@@H](CCc2ccc(C(F)(F)F)c(Cl)c2)C(=O)N2CC3(CC3)C[C@H]2C(=O)NC2(CC(C)(C)C2)C(=O)N(C)[C@@H](CC(C)(C)C)C(=O)N(C)[C@H](C(=O)N(C)C)CC(=O)N1C [PP2979] | B (a compound having 3 or more and less than 10 is denoted as B) | A (a compound having 10 or more and less than 20 is denoted as A)
0.23 nM | C#CC[C@H]1C(=O)N[C@@H]([C@@H](C)CC)C(=O)N(C)CC(=O)N(C)[C@H]2C/C=C\CCN(C2=O)[C@@H](Cc2ccc(C(F)(F)F)cc2)C(=O)N(C)CC(=O)N[C@@H](CCc2ccc(C(F)(F)F)c(Cl)c2)C(=O)N2CC3(CC3)C[C@H]2C(=O)NC2(CC(C)(C)C2)C(=O)N(C)[C@@H](C2CCCC2)C(=O)N(C)[C@H](C(=O)N(C)C)CC(=O)N1C [PP2980] | B (a compound having 3 or more and less than 10 is denoted as B) | A (a compound having 10 or more and less than 20 is denoted as A)
0.16 nM | C#CC[C@H]1C(=O)N[C@@H]([C@@H](C)CC)C(=O)N(C)CC(=O)N(C)[C@H]2C/C=C\CCN(C2=O)[C@@H](Cc2ccc(C)cc2)C(=O)N(C)CC(=O)N[C@@H](CCc2ccc(C(F)(F)F)c(Cl)c2)C(=O)N2CC3(CC3)C[C@H]2C(=O)NC2(CC(C)(C)C2)C(=O)N(C)[C@@H](C2CCCC2)C(=O)N(C)[C@H](C(=O)N(C)C)CC(=O)N1C [PP2982] | A (a compound having 10 or more and less than 20 is denoted as A) | A (a compound having 10 or more and less than 20 is denoted as A)
0.2 nM | CCC[C@H]1C(=O)N[C@@H](C2CCCC2)C(=O)N(C)CC(=O)N(C)[C@H]2C/C=C\CCN(C2=O)[C@@H](Cc2ccc(C(F)(F)F)cc2)C(=O)N(C)CC(=O)N[C@@H](CCc2ccc(C(F)(F)F)c(Cl)c2)C(=O)N2C[C@H](OCC)C[C@H]2C(=O)NC2(CC(C)(C)C2)C(=O)N(C)[C@@H](C2CCCC2)C(=O)N(C)[C@H](C(=O)N(C)C)CC(=O)N1C [PP2984] | B (a compound having 3 or more and less than 10 is denoted as B) | A (a compound having 10 or more and less than 20 is denoted as A)
0.087 nM | CCC[C@H]1C(=O)N[C@@H](C2CCCC2)C(=O)N(C)CC(=O)N(C)[C@H]2C/C=C\CCN(C2=O)[C@@H](Cc2ccc(C)cc2)C(=O)N(C)CC(=O)N[C@@H](CCc2cc(F)c(C(F)(F)F)c(F)c2)C(=O)N2C[C@H](OCC)C[C@H]2C(=O)NC2(CC(C)(C)C2)C(=O)N(C)[C@@H](CC(C)(C)C)C(=O)N(C)[C@H](C(=O)N(C)C)CC(=O)N1C [PP2989] | A (a compound having 10 or more and less than 20 is denoted as A) | AA (a compound having 20 or more is denoted as AA)
0.19 nM | CCC[C@H]1C(=O)N[C@@H](C2CCCC2)C(=O)N(C)CC(=O)N(C)[C@H]2C/C=C\CCN(C2=O)[C@@H](Cc2ccc(C)cc2)C(=O)N(C)CC(=O)N[C@@H](CCc2ccc(C(F)(F)F)c(OC)c2)C(=O)N2C[C@H](OCC)C[C@H]2C(=O)NC2(CC(C)(C)C2)C(=O)N(C)[C@@H](C2CCCC2)C(=O)N(C)[C@H](C(=O)N(C)C)CC(=O)N1C [PP2992] | A (a compound having 10 or more and less than 20 is denoted as A) | AA (a compound having 20 or more is denoted as AA)
0.12 nM | CCC[C@H]1C(=O)N[C@@H]([C@@H](C)CC)C(=O)N(C)CC(=O)N(C)[C@H]2C/C=C\CCN(C2=O)[C@@H](Cc2ccc(C)cc2)C(=O)N(C)CC(=O)N[C@@H](CCc2cc(F)c(C(F)(F)F)c(F)c2)C(=O)N2CC3(CC3)C[C@H]2C(=O)NC2(CC(C)(C)C2)C(=O)N(C)[C@@H](CC(C)(C)C)C(=O)N(C)[C@H](C(=O)N(C)C)CC(=O)N1C [PP2997] | B (a compound having 3 or more and less than 10 is denoted as B) | A (a compound having 10 or more and less than 20 is denoted as A)
0.13 nM | CCC[C@H]1C(=O)N[C@@H](C2CCCC2)C(=O)N(C)CC(=O)N(C)[C@H]2C/C=C\CCN(C2=O)[C@@H](Cc2ccc(C)cc2)C(=O)N(C)CC(=O)N[C@@H](CCc2cc(F)c(C(F)(F)F)c(F)c2)C(=O)N2CC3(CC3)C[C@H]2C(=O)NC2(CC(C)(C)C2)C(=O)N(C)[C@@H](CC(C)(C)C)C(=O)N(C)[C@H](C(=O)N(C)C)CC(=O)N1C [PP2999] | A (a compound having 10 or more and less than 20 is denoted as A) | AA (a compound having 20 or more is denoted as AA)
